A value given as a limit tells only on which side of the number the result lay.

The record followed here is patent US11555012B2 (Nimbus Artemis, Inc., priority 2018, dated 2023).

The target of the first assay is ACL (Homo sapiens (Human), UniProt P53396). The assay can be described thus: ADP-Glo Assay.
ACL, sequence (P53396 other isoform, or with tags, fused parts or gaps isoform P53396-2): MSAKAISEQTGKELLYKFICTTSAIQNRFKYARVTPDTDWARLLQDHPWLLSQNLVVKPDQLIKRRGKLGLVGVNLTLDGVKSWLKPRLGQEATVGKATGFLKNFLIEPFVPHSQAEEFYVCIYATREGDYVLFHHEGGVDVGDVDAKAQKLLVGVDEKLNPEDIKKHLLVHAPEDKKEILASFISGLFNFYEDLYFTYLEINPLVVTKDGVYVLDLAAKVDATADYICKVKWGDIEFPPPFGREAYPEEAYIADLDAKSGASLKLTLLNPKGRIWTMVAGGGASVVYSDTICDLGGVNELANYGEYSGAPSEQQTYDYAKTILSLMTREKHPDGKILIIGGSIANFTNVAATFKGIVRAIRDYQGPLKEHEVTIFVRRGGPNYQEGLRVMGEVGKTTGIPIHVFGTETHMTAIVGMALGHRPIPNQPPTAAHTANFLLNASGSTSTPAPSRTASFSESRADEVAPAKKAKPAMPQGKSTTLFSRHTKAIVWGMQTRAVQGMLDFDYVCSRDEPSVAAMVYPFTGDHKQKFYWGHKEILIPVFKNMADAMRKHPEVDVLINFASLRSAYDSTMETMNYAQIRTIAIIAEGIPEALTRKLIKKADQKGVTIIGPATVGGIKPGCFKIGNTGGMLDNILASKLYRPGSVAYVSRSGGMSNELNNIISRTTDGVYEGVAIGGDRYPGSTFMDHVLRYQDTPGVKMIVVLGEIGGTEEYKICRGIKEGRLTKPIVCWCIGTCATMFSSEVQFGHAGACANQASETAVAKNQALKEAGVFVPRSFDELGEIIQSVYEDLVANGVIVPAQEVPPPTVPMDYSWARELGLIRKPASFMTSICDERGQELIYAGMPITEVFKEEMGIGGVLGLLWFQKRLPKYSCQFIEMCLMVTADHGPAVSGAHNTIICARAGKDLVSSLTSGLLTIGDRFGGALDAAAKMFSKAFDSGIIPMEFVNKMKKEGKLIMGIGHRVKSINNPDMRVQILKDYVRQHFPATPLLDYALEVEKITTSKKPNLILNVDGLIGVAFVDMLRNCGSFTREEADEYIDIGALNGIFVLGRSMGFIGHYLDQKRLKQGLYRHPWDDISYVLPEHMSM
Details: not given
Consider `COc1ccc(-c2ccccc2)cc1NS(=O)(=O)c1ccc(C#N)cc1` [I-410, 4-cyano-N-(2-methoxy-5-phenylphenyl)benzene-1-sulfonamide], for which the IC50 is greater than 20 µM.
On the same count and under the same terms, the value for `CC#Cc1cc(Cl)ccc1N(C)S(=O)(=O)c1cc(Br)cc(Cl)c1O` [I-516, 5-bromo-3-chloro-N-(4-chloro-2-(prop-1-yn-1-yl)phenyl)-2-hydroxy-N-methylbenzenesulfonamide] was 0.5 to 20 µM; that for `Cc1c(CNS(=O)(=O)c2cc(Cl)cc(Cl)c2O)n(C)c2ccccc12` [I-181] was 0.5 to 20 µM; that for `CC(C)Cc1csc(NS(=O)(=O)c2cc(Cl)cc(Cl)c2O)c1C(=O)N1CCOCC1` [I-165] was 0.5 to 20 µM.
Same read-out and setting: the value for `CC(C)NC(=O)c1ccc(NS(=O)(=O)c2cc(Cl)cc(Cl)c2O)cc1` [I-178] was 0.5 to 20 µM; that for `Cc1nn(C)c(Cl)c1S(=O)(=O)Nc1cc(-c2ccccc2)ccc1C(=O)O` [I-345, 3-((5-chloro-1,3-dimethyl-1H-pyrazole)-4-sulfonamido)-[1,1′-biphenyl]-4-carboxylic Acid] was 0.5 to 20 µM; that for `O=S(=O)(Nc1cc(-n2nnnc2C2CC2)ccc1F)c1cc(Cl)cc(Cl)c1O` [I-164] was 0.5 to 20 µM.
For the molecule `Cc1ccc(C(=O)O)c(NS(=O)(=O)c2cc(Cl)cc(Cl)c2)n1` [I-527, 2-((3,5-dichlorophenyl)sulfonamido)-6-methylnicotinic acid], the IC50 is greater than 20 µM.
Still for that read-out and setting: the value for `O=C(O)c1ccc(-c2ccccc2)cc1NS(=O)(=O)CC1CCC1` [I-307, 3-((cyclobutylmethyl)sulfonamido)-[1,1′-biphenyl]-4-carboxylic Acid] was 0.5 to 20 µM; that for `O=C(O)c1ccsc1NS(=O)(=O)c1cc(Cl)cc(Cl)c1` [I-352, 2-((3,5-dichlorophenyl)sulfonamido)thiophene-3-carboxylic Acid] was 0.5 to 20 µM.
The same measure, in the same setting: the value for `CC(C)S(=O)(=O)Nc1ccc(S(=O)(=O)Nc2cc(-c3ccccc3)ccc2F)cc1F` [I-524, 3-fluoro-N-(4-fluoro-[1,1′-biphenyl]-3-yl)-4-((1-methylethyl)sulfonamido)benzenesulfonamide] was greater than 20 µM.
On the same count and under the same terms, the value for `COC(=O)c1cc(Cl)c(OC)c(S(=O)(=O)Nc2cc(-c3ccccc3)c(F)cc2F)c1` [I-63, Methyl 3-chloro-5-(N-(4,6-difluoro-[1,1′-biphenyl]-3-yl)sulfamoyl)-4-methoxybenzoate] was 0.5 to 20 µM; that for `O=C(O)c1ccc(-c2ccccc2)cc1NS(=O)(=O)c1cc(Cl)cc(C(=O)N2CCC2)c1` [I-227, 3-((3-(azetidine-1-carbonyl)-5-chlorophenyl)sulfonamido)-[1,1′-biphenyl]-4-carboxylic Acid] was 0.5 to 20 µM.
In turn, `COc1c(Cl)cc(Cl)cc1S(=O)(=O)Nc1cc(C(=O)O)ccc1F` [I-413, 3-[(3,5-dichloro-2-methoxybenzene)sulfonamido]-4-fluorobenzoic Acid] had an IC50 greater than 20 µM.
`O=C(O)c1ccc(-c2ccccc2)cc1NS(=O)(=O)c1cc(Cl)ccc1Cl` [I-288, 3-((2,5-dichlorophenyl)sulfonamido)-[1,1′-biphenyl]-4-carboxylic acid] displayed an IC50 of 0.5 to 20 µM.
Consider `O=S(=O)(Nc1cc(-c2ccccc2)c(F)cc1F)c1cccc(Cl)c1F` [I-195, 3-chloro-N-(4,6-difluoro-[1,1′-biphenyl]-3-yl)-2-fluorobenzenesulfonamide], for which the IC50 lay in the range of 0.5 to 20 µM.
The same measure, in the same setting: for `O=S(=O)(Nc1cc(-c2ccccc2)c(F)cc1F)c1cccc(-c2nn[nH]n2)c1` [I-96, N-(2,4-difluoro-5-phenylphenyl)-3-(2H-1,2,3,4-tetrazol-5-yl)benzene-1-sulfonamide] the value was 0.5 to 20 µM; for `CC(C)(C)Cc1nc2cc(NS(=O)(=O)c3cc(Cl)cc(Cl)c3O)ccc2o1` [I-172], 0.5 to 20 µM.
Same read-out and setting: for `CN(c1cc(-c2ccccc2)c(F)cc1C(=O)O)S(=O)(=O)c1cc(Cl)cc(Cl)c1` [I-325, 5-((3,5-dichloro-N-methylphenyl)sulfonamido)-2-fluoro-[1,1′-biphenyl]-4-carboxylic Acid] the value was 0.5 to 20 µM; for `N#Cc1cc(Cl)cc(S(=O)(=O)Nc2cc(-c3ccccc3)ccc2O)c1` [I-218, 3-chloro-5-cyano-N-[4-hydroxy-[1,1-biphenyl]-3-yl]benzene-1-sulfonamide], 0.5 to 20 µM; for `COC(=O)c1cc(Cl)c(OC)c(S(=O)(=O)Nc2cc(-c3cccnc3)ccc2OC)c1` [I-42, Methyl 3-chloro-4-methoxy-5-(N-(2-methoxy-5-(pyridine-3-yl)phenyl)sulfamoyl)benzoate], 0.5 to 20 µM.
Still for that read-out and setting: for `O=C(O)c1ccc(-c2ccccc2)cc1NS(=O)(=O)CCC1CCCC1` [I-356] the value was 0.5 to 20 µM; for `COc1ccc(-c2ccccc2)cc1NS(=O)(=O)c1cc(Cl)c(O)c(Br)c1` [I-44, 3-bromo-5-chloro-4-hydroxy-N-(2-methoxy-5-phenylphenyl)benzene-1-sulfonamide], 0.5 to 20 µM; for `CO[C@H]1CCN(C(=O)c2cc(Cl)cc(S(=O)(=O)Nc3cc(-c4ccccc4)c(F)cc3F)c2)C1` [I-389, (S)-3-chloro-N-(4,6-difluoro-[1,1′-biphenyl]-3-yl)-5-(3-methoxypyrrolidine-1-carbonyl)benzenesulfonamide], greater than 20 µM.
Molecule `O=S(=O)(Nc1cc(-c2ccccc2)ccc1F)c1cc(Cl)c(O)cc1O` [I-54, 5-chloro-N-(2-fluoro-5-phenylphenyl)-2,4-dihydroxybenzene-1-sulfonamide] showed an IC50 of 0.5 to 20 µM.
Same read-out and setting: for `COc1ccc(-c2ccccc2)cc1NS(=O)(=O)c1cc(C(=O)N2CCC2)cc(Cl)c1OC` [I-374, 5-(azetidine-1-carbonyl)-3-chloro-2-methoxy-N-[4-methoxy-[1,1-biphenyl]-3-yl]benzene-1-sulfonamide] the value was greater than 20 µM; for `O=c1[nH]c2cc(F)c(S(=O)(=O)Nc3cc(-c4ccccc4)ccc3F)cc2o1` [I-253], 0.5 to 20 µM; for `COc1ccc(Br)cc1S(=O)(=O)Nc1cc(-c2ccccc2)c(F)cc1F` [I-380, 5-bromo-N-[4,6-difluoro-[1,1-bipheny1]-3-yl]-2-methoxybenzene-1-sulfonamide], greater than 20 µM.
Still for that read-out and setting: the value for `O=C(O)c1cc(Cl)c(O)c(S(=O)(=O)Nc2ccccc2F)c1` [I-283, 3-chloro-5-[(2-fluorophenyl)sulfamoyl]-4-hydroxybenzoic acid] was 0.5 to 20 µM; that for `CCC(=O)Oc1ccccc1S(=O)(=O)Nc1cc(-c2ccccc2)ccc1F` [I-121, 2-[(2-fluoro-5-phenylphenyl)sulfamoyl]phenyl Propanoate] was 0.5 to 20 µM; that for `Cn1ccc(Oc2c(Cl)cc(Cl)cc2S(=O)(=O)Nc2cc(-c3ccccc3)ccc2F)n1` [I-443, 3,5-dichloro-N-(4-fluoro-[1,1′-biphenyl]-3-yl)-2-((1-methyl-1H-pyrazol-3-yl)oxy)benzenesulfonamide] was greater than 20 µM.
On the same count and under the same terms, for `COc1ccccc1S(=O)(=O)Nc1cc(-c2ccccc2)ccc1F` [I-441, N-[4-fluoro-[1,1-biphenyl]-3-yl]-2-methoxybenzene-1-sulfonamide] the value was greater than 20 µM.
In turn, `COc1ccc(-c2ccccc2)cc1NS(=O)(=O)c1cc(Cl)cc(Cl)c1OC` [I-402, 3,5-dichloro-2-methoxy-N-(4-methoxy-[1,1′-biphenyl]-3-yl)benzenesulfonamide] came in with an IC50 greater than 20 µM.
Still for that read-out and setting: for `COc1ccc(N2CCCCC2)cc1NS(=O)(=O)c1cc(Cl)cc(Cl)c1O` [I-10, 3,5-dichloro-2-hydroxy-N-(2-methoxy-5-(piperidin-1-yl)phenyl)benzenesulfonamide] the value was 0.5 to 20 µM.
On the same count and under the same terms, for `COc1ccc(C(=O)OC2CC2)cc1NS(=O)(=O)c1cc(Cl)cc(Cl)c1O` [I-411, cyclopropyl 3-((3,5-dichloro-2-hydroxyphenyl)sulfonamido)-4-methoxybenzoate] the value was greater than 20 µM.
The same measure, in the same setting: for `C=CCN(c1cc(-c2ccccc2)ccc1F)S(=O)(=O)c1cc(C(=O)OC)cc(Cl)c1O` [I-108, Methyl 3-(N-allyl-N-(4-fluoro-[1,1′-biphenyl]-3-yl)sulfamoyl)-5-chloro-4-hydroxybenzoate] the value was 0.5 to 20 µM; for `CC(=O)N1CCCN(c2ccc(-c3ccccc3)cc2NS(=O)(=O)c2cc(Cl)cc(Cl)c2O)CC1` [I-279, N-[4-(4-acetyl-1,4-diazepan-1-yl)-[1,1-biphenyl]-3-yl]-3,5-dichloro-2-hydroxybenzene-1-sulfonamide], 0.5 to 20 µM; for `COc1ccc(-c2ccccc2)cc1NS(=O)(=O)c1cc(Cl)cc(Cl)c1F` [I-394, 3,5-dichloro-2-fluoro-N-[4-methoxy-[1,1-biphenyl]-3-yl]benzene-1-sulfonamide], greater than 20 µM.
`O=S(=O)(NCC1COc2ccccc2C1)c1cc(Cl)cc(Cl)c1O` (centres unmarked) [I-185] came in with an IC50 of 0.5 to 20 µM.
Molecule `COc1ccc(-c2ccccc2)cc1NS(=O)(=O)c1cc(C(N)=O)cc(Cl)c1OC` [I-432, 3-chloro-4-methoxy-5-(N-(4-methoxy-[1,1′-biphenyl]-3-yl)sulfamoyl)benzamide] displayed an IC50 greater than 20 µM.
Still for that read-out and setting: the value for `COC(=O)Cc1ccc(-c2ccccc2)cc1NS(=O)(=O)c1cc(Cl)cc(Cl)c1` [I-530, methyl 2-(3-((3,5-dichlorophenyl)sulfonamido)-[1,1′-biphenyl]-4-yl)acetate] was greater than 20 µM.
On the same count and under the same terms, for `O=C(O)c1ccc(-c2ccccc2)cc1NS(=O)(=O)c1cccnc1Cl` [I-300] the value was 0.5 to 20 µM.
As for `COc1ccc(-c2ccccc2)cc1NS(=O)(=O)c1cc(F)cc(F)c1O` [I-40, 3,5-difluoro-2-hydroxy-N-(2-methoxy-5-phenylphenyl) benzene-1-sulfonamide], the IC50 is 0.5 to 20 µM.
Still for that read-out and setting: the value for `COC(=O)c1cc(Cl)cc(S(=O)(=O)Nc2cc(-c3ccccc3)ccc2OC)c1OC` [I-435, Methyl 5-chloro-2-methoxy-3-(N-(4-methoxy-[1,1′-biphenyl]-3-yl)sulfamoyl)benzoate] was greater than 20 µM.
For the molecule `O=C(O)c1ccc(-c2ccccc2)cc1NS(=O)(=O)CC1CCCC1` [I-274], the IC50 lay in the range of 0.5 to 20 µM.

Staying with this assay, now noted: read-out: ACL-ADP-Glo (IC50); 3 nM ACL, 15 μM ATP, 3 μM CoA, 300 μM Citrate.
`O=C(c1cc(Cl)c(O)c(S(=O)(=O)Nc2cc(-c3ccccc3)ccn2)c1)N1CCC1` [I-237]: the 50% inhibitory concentration (IC50) lay within 0.5 to 20 µM.
The same measure, in the same setting: the value for `O=C(O)c1ccc(-c2ccccc2)cc1NCc1cc(Cl)cc(Cl)c1` [I-371, 3-((3,5-dichlorobenzyl)amino)-[1,1′-biphenyl]-4-carboxylic Acid] was 0.5 to 20 µM.

The IC50 is the concentration that gives 50% inhibition.
